The source of these data is patent US9359589B2, “Use of at least one chelating agent introduced into the culture medium of magnetotactic bacteria in order to stimulate the growth thereof” (UNIVERSITE PIERRE ET MARIE CURIE (PARIS 6), priority 2011, dated 2016).

What all share (assay type): cell-based
Assay [1] has as its system Magnetotactic bacteria of the Magnetospirillum magneticum species, strain AMB-1. Description: Growth of magnetotactic bacteria after 7 days of culture in 1 liter of medium with chelating agent (absorption at 565 nm). The note with it: for absorption measured at 565 nm of bacterial suspension compared with bacteria cultured in the absence of chelating agent: 1 liter. On the procedure:
(§1) Magnetotactic bacteria of the Magnetospirillum magneticum species, strain AMB-1, available from ATCC under the reference ATCC No. 700274, were used.
The cells were placed in culture under microanaerobic conditions, i.e. in a culture medium which has not been degassed but which is closed and has no contact with oxygen. The bacteria were cultured at laboratory temperature (approximately 25° C.) in a liquid culture in a slighly modified MSGM medium (medium ATCC 1653), the makeup of which is described hereinafter.
For a volume of one liter, the culture medium contains 0.68 g of monobasic potassium phosphate, 0.85 g of sodium succinate, 0.57 g of sodium tartrate, 0.083 g of sodium acetate, 225 μl of resazurin at 0.2%, 0.17 g of sodium nitrate, 0.04 g of L-ascorbic acid, 2 ml of a 10 mM iron quinate solution, 10 ml of a Woolf vitamin solution and 5 ml of a Woolf mineral solution.
(§2) In order to prepare the culture medium containing the various iron-chelating agents, said agents were introduced at various concentrations into the culture medium described above (section 1.2).
(§3) In this example, the magnetotactic bacteria were cultured in the presence of various chelating agents and harvested after 7 days. The absorption and the iron oxide concentration of the magnetosome chains extracted from the bacteria were then measured.

For assay [2] the test system is unchanged. Description: Magnetosome production after 7 days of culture (iron oxide concentration of extracted magnetosome chains, absorption at 480 nm). On the procedure:
as §1, §2
The cells were harvested during the stationary phase.
The cells are harvested during the stationary phase by centrifugation at 4000 g for 20 minutes. The supernatant is removed and the cells are resuspended in 3 ml of deionized water.
To extract the magnetosome chains, 1 ml of cell suspension obtained as described above is again centrifuged and then resuspended in a 10 mM Tris-HCl buffer at pH 7.4, and then the cell suspension is subjected to a sonication step for 120 minutes at a power of 30 W, in order to lyze the cells and to release the magnetosome chains. Sonication periods of 60 and 180 minutes can also be used. For a sonication period of less than 60 minutes, the bacteria are not all lyzed. For a sonication period of greater than 180 minutes, the beginnings of aggregation are observed owing to the presence of individual magnetosomes which are aggregated.
After sonication, the magnetosome chain suspension is separated by placing a powerful neodynium magnet (0.1-1 T) in proximity to the tube, and the magnetic material is then recovered in the form of a pellet.
The maghemite concentration of a suspension of magnetosome chains extracted from magnetotactic bacteria was measured using the measurement of the absorption at 480 nm of this suspension. The method of calibration between the value of the absorption and the amount of maghemite is described elsewhere (PCT/EP2010/067765). These measurements were carried out in order to determine the amount of magnetosome chains produced by the magnetotactic bacteria after a given growth time. The amounts of magnetosome chains produced in the absence and in the presence of the chelating agents were then compared.
as §3

Assay [3] deals with Magnetospirillum magneticum. Description: Growth over time of magnetotactic bacteria in 10 ml tubes with chelating agent (absorbance, O.D. at 565 nm, D2-D9). The note with it: for multiplication of the bacteria during the first 4 days: first 4 days of growth; for effect on the growth of the magnetotactic bacteria (absorbance compared with cultures without the agent): 0.4-400 μM, D2 to D9, 10 ml tubes. On the procedure: Cultures of Magnetospirillum magneticum were prepared as described in example 1. The bacteria were cultured in 10 milliliter tubes. A volume of 100 microliters of culture medium was inoculated, at time “D0” (Day 0), with 0.1×10^6 bacterial cells. The cultures in suspension were placed at ambient temperature (approximately 25° C.) and the growth of the bacteria over time was monitored by measuring O.D. at the wavelength of 565 nanometers.
The following series of culture samples were prepared: • samples of control culture, comprising the bacterial cells in the culture medium free of chelating agent; • a series of culture samples containing the chelating agent rhodamine B, at increasing concentrations of 0.4 μM, 4 μM, 40 μm and 400 μM; • a series of culture samples containing the chelating agent ascorbic acid, at increasing concentrations of 0.4 μM, 4 μM, 40 μM and 400 μM; • a series of culture samples containing the chelating agent erythrosine, at increasing concentrations of 0.4 μM, 40 μM and 400 μM; • a series of culture samples containing the chelating agent folic acid, at increasing concentrations of 0.4 μM, 4 μM, 40 μM and 400 μM;
The bacteria were cultured for 12 days in a tube and the absorbance over the whole of the spectrum ranging from 400 to 700 nanometers was measured, respectively, (i) on the second day (D2) after inoculation, (ii) on the third day (D3) after inoculation, (iii) on the fourth day (D4) after inoculation, (iv) on the seventh day (D7) after inoculation, (v) on the eighth day (D8) after inoculation and (vi) on the ninth day (D9) after inoculation. The magnetic moments of various suspensions of magnetotactic bacteria deposited on blotting paper were measured on days D7, D8 and D9.

Regarding `O=C(O)CN(CC(=O)O)Cc1cc2c(cc1O)Oc1cc(O)c(CN(CC(=O)O)CC(=O)O)cc1C21OC(=O)c2ccccc21` [calcein], the “absorption measured at 565 nm of bacterial suspension compared with bacteria cultured in the absence of chelating agent” value in assay [1] (chelating agent 4 μM) and in assay [1] (chelating agent 40 μM) was “greater” each time. Also, the “magnetosome production (iron oxide concentration) compared with the control bacteria” value in assay [2] (chelating agent 4 μM) and in assay [2] (chelating agent 40 μM) was “increased” each time.
On to `Nc1nc2ncc(CNc3ccc(C(=O)N[C@@H](CCC(=O)O)C(=O)O)cc3)nc2c(=O)[nH]1` [folic acid], for which the “multiplication of the bacteria during the first 4 days” value in assay [3] (0.4 μM) and in assay [3] (40 μM) was “multiply in greater number” each time. For the same molecule, the “growth of the bacteria during the first two days” value in assay [3] (4 μM, first two days of growth) is listed as “grow more rapidly”. The “effect on the growth of the magnetotactic bacteria (absorbance compared with cultures without the agent)” value in assay [3] was “stimulates the growth”.
With `Nc1ccccc1C(=O)O` [anthranilic acid], in assay [1] (chelating agent 0.4 μM), the “absorption measured at 565 nm of bacterial suspension compared with bacteria cultured in the absence of chelating agent” value is given as “greater”. Also, the “magnetosome production (iron oxide concentration) compared with the control bacteria” value in assay [2] (chelating agent 0.4 μM) is listed as “increased”.
Take `CCN(CC)c1ccc2c(-c3ccccc3C(=O)O)c3ccc(=[N+](CC)CC)cc-3oc2c1` [rhodamine B]: the “absorption measured at 565 nm of bacterial suspension compared with bacteria cultured in the absence of chelating agent” value in assay [1] (chelating agent 0.4 μM), in assay [1] (chelating agent 4 μM) and in assay [1] (chelating agent 40 μM) was “greater” in each case. Moreover, the “magnetosome production (iron oxide concentration) compared with the control bacteria” value in assay [2] (chelating agent 0.4 μM), in assay [2] (chelating agent 4 μM) and in assay [2] (chelating agent 40 μM) was “increased” throughout. Besides, the “effect on cell growth at high concentration” value in assay [3] (400 μM) is “rather unfavorable”. For the same molecule, in assay [3], the “effect on the growth of the magnetotactic bacteria (absorbance compared with cultures without the agent)” value is recorded as “stimulates the growth”. In addition, the “growth curves (fitted absorption, first 7 days) relative to bacteria cultured in the absence of the agent” value in assay [3] (all concentrations except 400 μM) is listed as “above”. Moreover, the “period of culture during which the effects are greatest” value in assay [3] (exponential growth phase) is “first six days”.
`O=C(O)CC(O)(CC(=O)O)C(=O)O` [citric acid]: the “absorption measured at 565 nm of bacterial suspension compared with bacteria cultured in the absence of chelating agent” value in assay [1] (chelating agent 4 μM) and in assay [1] (chelating agent 40 μM) was “greater” throughout. Besides, the “magnetosome production (iron oxide concentration) compared with the control bacteria” value in assay [2] (chelating agent 4 μM) and in assay [2] (chelating agent 40 μM) was “increased” each time.
Regarding `NCCCCCC(O)(P(=O)(O)O)P(=O)(O)O` [neridronate, reference compound], in assay [1] (chelating agent 40 μM), the “absorption measured at 565 nm of bacterial suspension compared with bacteria cultured in the absence of chelating agent” value was “greater”.
On to `O=C(O)CN(CCN(CC(=O)O)CC(=O)O)CC(=O)O` [EDTA, ethylenediaminetetraacetic acid], for which the “absorption measured at 565 nm of bacterial suspension compared with bacteria cultured in the absence of chelating agent” value in assay [1] (chelating agent 0.4 μM), in assay [1] (chelating agent 4 μM) and in assay [1] (chelating agent 40 μM) was “greater” in each case. The “magnetosome production (iron oxide concentration) compared with the control bacteria” value in assay [2] (chelating agent 0.4 μM) and in assay [2] (chelating agent 4 μM) was “increased” throughout.
`NCCCC(O)(P(=O)(O)O)P(=O)(O)O` [alendronate, reference compound]: the “magnetosome production (iron oxide concentration) compared with the control bacteria” value in assay [2] (chelating agent 0.4 μM), in assay [2] (chelating agent 4 μM) and in assay [2] (chelating agent 40 μM) was “increased” throughout.
`O=S(=O)(O)CCCN1CCOCC1` [3-(N-morpholino)propanesulfonic acid]: the “absorption measured at 565 nm of bacterial suspension compared with bacteria cultured in the absence of chelating agent” value in assay [1] (chelating agent 4 μM) and in assay [1] (chelating agent 40 μM) was “greater” throughout. In addition, the “magnetosome production (iron oxide concentration) compared with the control bacteria” value in assay [2] (chelating agent 0.4 μM) is on record as “increased”.
With hemoglobin, the “absorption measured at 565 nm of bacterial suspension compared with bacteria cultured in the absence of chelating agent” value in assay [1] (chelating agent 0.4 μM), in assay [1] (chelating agent 4 μM) and in assay [1] (chelating agent 40 μM) was “greater” throughout. The “factor of increase of iron oxide production” value in assay [2] (0.4 μM in the culture medium) and in assay [2] (4 μM in the culture medium) was 7-8 in each case. In addition, the “magnetosome production (iron oxide concentration) compared with the control bacteria” value in assay [2] (chelating agent 0.4 μM), in assay [2] (chelating agent 4 μM) and in assay [2] (chelating agent 40 μM) was “increased” each time.
Regarding `O=S(=O)(O)CCCNC1CCCCC1` [3-[cyclohexylamino]-1-propanesulfonic acid], the “absorption measured at 565 nm of bacterial suspension compared with bacteria cultured in the absence of chelating agent” value in assay [1] (chelating agent 0.4 μM), in assay [1] (chelating agent 4 μM) and in assay [1] (chelating agent 40 μM) was “greater” each time. Besides, the “magnetosome production (iron oxide concentration) compared with the control bacteria” value in assay [2] (chelating agent 0.4 μM), in assay [2] (chelating agent 4 μM) and in assay [2] (chelating agent 40 μM) was “increased” throughout.
As for `O=C1OC2(c3ccccc31)c1cc(I)c(O)c(I)c1Oc1c2cc(I)c(O)c1I` [erythrosine], the “absorption compared with control bacteria on day D4” value in assay [3] (0.4 μM) and in assay [3] (4 μM) was “greater” each time. Moreover, the “effect on the growth of the magnetotactic bacteria (absorbance compared with cultures without the agent)” value in assay [3] is reported as “stimulates the growth of the magnetotactic bacteria less than rhodamine B or ascorbic acid”. For the same molecule, the “absorption compared with control bacteria” value in assay [3] (the other days of culture and the other concentrations) is “either similar to or lower”.
As for dextran, the “absorption measured at 565 nm of bacterial suspension compared with bacteria cultured in the absence of chelating agent” value in assay [1] (chelating agent 40 μM) was “greater”. Further, the “magnetosome production (iron oxide concentration) compared with the control bacteria” value in assay [2] (chelating agent 40 μM) is reported as “increased”.
With `NC(=O)c1cccnc1` [nicotinamide], in assay [1] (chelating agent 40 μM), the “absorption relative to that of the control bacteria” value is recorded as 1.5-2 times and the “absorption measured at 565 nm of bacterial suspension compared with bacteria cultured in the absence of chelating agent” value is “greater”.
